The text below walks through data of patent US20130136721A1, “Compositions and Methods of Generating a Differentiated Mesodermal Cell” (THE JOHNS HOPKINS UNIVERSITY, priority 2010, published 2013).

What all share (assay type): cell-based, human
For assay [1], the system named is hESC-derived cardiomyocyte monolayer. Nature of the assay: Voltage macromapping of cardiomyocyte monolayer (action potential duration). The settings on record: for effect on action potential: 20 μM isoproterenol or 100 μM pinacidil added to cardiomyocyte monolayers or hEB; for action potential duration: 0.67 Hz pacing, mean±s.d., 20 μM isoproterenol or 100 μM pinacidil, control 363±137 ms. How it is done: (§1) Cardiac markers and structural protein expression was assessed using immunofluorescence staining. […] To assess quality of hPSC-derived cardiomyocytes that were generated using this method and suitability for future applications such as cardiotoxicity testing, the electrophysiological properties were assessed via optical mapping. hEB were either mechanically dissected and plated onto fibronectin-coated glass coverslips for micromapping, or approximately 200 hEB were dissociated into single cells and plated in a 10 mm diameter area as a confluent monolayer for macromapping. hEB and monolayers were then stained with either voltage- or calcium-sensitive dye and optically mapped to visualize spontaneous activity and response to electrical field stimulation (FIG. 12A). […] To assess cardioactive drug responsiveness, 20 μM isoproterenol or 100 μM pinacidil was added to cardiomyocyte monolayers or hEB to test for beta-adrenergic stimulation response and the presence of functional KATP channels, respectively. […] Contracting hEB derived from the hiPSC line 6.2 were tested in the same manner and yielded similar results.
For optical micromapping (Weinberg et al., Methods Mol Biol 660, 215-237 (2010), contracting hEB were mechanically dissected, plated on fibronectin-coated glass coverslips and given at least 5 days to attach. hEB were then stained with either 10 μM Rhod-2-AM calcium dye for 20 minutes or 10 μM di-4-ANEPPS voltage dye for 5 minutes. After several rinses with Tyrode's solution (135 mM NaCl, 5.4 mM KCl, 1.8 mM CaCl2, 1 mM MgCl2, 0.33 mM NaH2PO4, 5 mM HEPES, and 5 mM glucose), hEB were incubated with 30 μM blebbistatin for 15 minutes to inhibit excitation-contraction coupling and subsequently prevent signal distortion due to motion artifact. The absence of hEB contraction was confirmed visually. hEB were then excited at 530 nm to visualize spontaneous activity and response to electrical field stimulation. Imaging of transmembrane potential (Vm) or intracellular calcium (Cai) was performed using an Andor iXon+860 electron multiplying charged coupled device (EMCCD) camera (128×128 pixels) at 490 Hz sampling rate. […] Macromapping of hESC-CM monolayers was performed using contact fluorescent imaging, in which maps of Vm were recorded by placing the monolayer directly on top of a bundle of 253 optical fibers 1 mm in diameter, arranged in a tightly packed, 17-mmdiameter hexagonal array. […] To analyze data, the individual recorded signals recorded were spatially filtered using a 5×5 box filter, temporally filtered using a 10 point median filter, baseline-corrected by subtraction of a fitted 3rd order polynomial, and range-normalized. […] Uniformity of APD was assessed by the coefficient of variation. […]

The next assay deals with H9 hESC. The assay is described as follows: Beating hEB assay (contracting hEB after forced aggregation cardiac differentiation). The settings on record: for effect on cardiac differentiation, phase 2 medium: supplement in d0-d2 medium; for effect on cardiac differentiation, phase 2 medium / effect on cardiac differentiation, phase 3 medium: contracting hEB d9; for effect on cardiac differentiation, phase 3 medium: supplement in d2-d4 medium; for effect on cardiac differentiation, phase 4 medium: supplement in d4 onwards medium. From the text:
The cardiac differentiation protocol was divided into four distinct phases for optimization (FIG. 3A): phase 1: uniform undifferentiated growth; phase 2: hEB formation/mesoderm induction; phase 3: hEB cardiac specification; phase 4: contracting cardiomyocyte development. […] After an initial round of optimizations had been completed, optimizations was repeated a second time to account for the new media formulations and then a third time to optimize the final media formulation. In some cases fourth and fifth repeats were performed to improve the statistical power of the results. For each variable tested, the bell-curve distribution of dose-response was determined. Results shown are averages of the 2nd-5th replicates (FIG. 2B).
For forced aggregation hEB differentiations, confluent hESC or hiPSC which had been grown on a commercially available extracellular matrix, Geltrex (Invitrogen) as monolayers for 3 to 13 passages were passaged with TrypLE Select and seeded at 2.5×10^6 per T25 flask. After 24 hours growth, cells were washed with PBS and treated with room temperature TrypLE Select for 1 minute at 37° C. Cells were seeded at 5000 cells per well in 96-well V-bottom uncoated plates (249952, NUNC) in 100 μL per well RPMI+PVA medium consisting of RPMI Media 1640 (with L-Glutamine), 4 mg mL-1 polyvinyl alcohol (P8136, Sigma, dissolved in RPMI at 4° C. for at least 72 hours, mixing by inversion every day), 1% chemically defined lipid concentrate, 10 μg mL-1 recombinant human insulin (Sigma), 400 μM 1-thioglycerol (Sigma), 25 ng mL-1 BMP4 and 5 ng mL-1 FGF2 (both from R&D systems), 1 μM Y-27632 (Calbiochem). This medium is not stable and was made fresh for each experiment. After 48 hours (on day 2) medium was aspirated with a Costar 8-channel aspirator (Corning) and replaced with RPMI+FBS medium consisting RPMI Media 1640, 20% characterized FBS (Hyclone), 400 μM 1-thioglycerol. On day 4 media was changed to RPMI+PVA without growth factors and hEB were transferred to 96-well U-bottom tissue culture treated plates (650180, Greiner Bio-One). Media was changed on d7 and every 3 days afterwards. hEB were visually assessed for contraction on d9 using a Nikon Eclipse Ti inverted tissue culture microscope with a TOKAI-HIT heated stage (Nikon). Images were captured using NIS-Elements (Nikon). […] For traditional cardiac differentiations using FBS, undirected differentiation was performed as previously described (Kehat et al. J Clin Invest 108, 407-414 (2001)): briefly, confluent H9 hESC grown as colonies on MEF were treated with collagenase IV for 5 minutes at 37° C. then washed from the plate using a 5 mL pipette. Cell clusters were then transferred to Petri dishes in 20% FBS medium for 7 days. hEB were then transferred to gelatin coated tissue culture plates. Media was changed every 3 days.
One single replicate consists of one 96-well plate. Repeat replicates were performed 1-4 months apart using a different vial of cells. Each experiment was repeated at least 3 times representing at least 288 hEB. Total number of hEB assessed in this work exceeds 80,000. Wells in which no hEB was detected due to pipeting error were excluded and accounted for approximately 1-5% of wells. P-values were established using unpaired two-tailed Student's t-test.

The next assay deals with H9 hEB. Nature of the assay: Voltage optical micromapping of contracting hEB (action potential duration). The conditions noted are these: 20 μM isoproterenol, 4 hEB, mean±s.d., p≈0.01 paired t-test. How it is done:
as §1, with “results. […]” for “results.”

“Also recorded” adds a separate entry of the source.

Consider `CC(N/C(=N\C#N)Nc1ccncc1)C(C)(C)C` (stereo not drawn) [pinacidil], for which, in assay [1], the “effect on action potential” value is given as “shortening of the action potential” and the action potential duration is 257 ± 56 ms.

Turning to `OCC(O)CS` (stereo not drawn) [1-thioglycerol], in the assay with H9 hESC, the “effect on cardiac differentiation, phase 2 medium” value is on record as “resulted in high efficiency cardiac differentiation”; the “effect on cardiac differentiation, phase 3 medium” value is listed as “most suitable antioxidant for this phase”; the “effect on cardiac differentiation, phase 4 medium” value is “essential for this d4+ phase”.

In the case of `O=C1O[C@H]([C@@H](O)CO)C(O)=C1O` [L-ascorbic acid], in the assay on H9 hESC, the “effect on cardiac differentiation, phase 2 medium” value is recorded as “either did not further enhance differentiation or had negative effects on differentiation” and the “effect on cardiac differentiation, phase 3 medium” value was “Neither transferrin, L-ascorbic acid, lipids or NEAA enhanced this phase of differentiation”.

Regarding “IGF1: growth factor titrated between 1-100 ng mL-1”, in the assay with H9 hESC, the “effect on cardiac differentiation, phase 2 medium” value is given as “none were found to have the same potency as BMP4”.

On to “IGF2: growth factor titrated between 1-100 ng mL-1”, for which the “effect on cardiac differentiation, phase 2 medium” value in the assay on H9 hESC is on record as “none were found to have the same potency as BMP4”.

For “insulin: recombinant human insulin (Sigma)”, in the assay with H9 hESC, the “effect on cardiac differentiation, phase 3 medium” value is given as “completely abrogated cardiac specification; also recorded: completely ablated cardiac differentiation” and the “effect on cardiac differentiation, phase 4 medium” value is “did not effect this d4+ phase”. Besides, the “effect on cardiac differentiation, xeno- and serum-free d2-d4 medium” value with H9 hESC (supplement in serum-free d2-d4 medium) was “inhibited cardiac differentiation”.

For the compound `C[C@@H](N)[C@H]1CC[C@H](C(=O)Nc2ccncc2)CC1` [Y-27632, reference compound], the “effect on cardiac differentiation, phase 2 medium” value in the assay on H9 hESC was “further improved reproducibility and cardiac differentiation”.

As to `NC(=O)CC[C@H](N)C(=O)O` [L-glutamine], in the assay with H9 hESC, the “effect on cardiac differentiation, phase 2 medium” value was “either did not further enhance differentiation or had negative effects on differentiation” and the “effect on cardiac differentiation, phase 3 medium” value is listed as “did not enhance cardiac differentiation”.

For TGFB, in the assay with H9 hESC, the “effect on cardiac differentiation, phase 2 medium” value is listed as “none were found to have the same potency as BMP4”.

Turning to WNT3A, in the assay on H9 hESC, the “effect on cardiac differentiation, phase 2 medium” value was “none were found to have the same potency as BMP4”.

As for `CC(C)NCC(O)c1ccc(O)c(O)c1` (stereo not drawn) [isoproterenol], the “shortening of the mean APD” value in the assay on H9 hEB is 23 ± 8 ms. In assay [1], the “effect on action potential” value was “shortening of the action potential” and the action potential duration was determined as 262 ± 107 ms.

FGF2: fibroblast growth factor 2: the “effect on cardiac differentiation, phase 3 medium” value in the assay with H9 hESC is reported as “did not further enhance this phase; also recorded: did not enhance cardiac differentiation”.
